Columns and labels:
Test in all cases: Herbicidal effect by foliage and soil treatment
Format in all cases: in vivo
Details in all cases: 10 g ai/10a, evaluated after 14 days
[1] = test system: ivyleafspeedwell (Veronica hederaefolia)
Excerpt: (§1) Experiment for Determination of Herbicidal Effect by Foliate and Soil Treatment Seeds of redroot pigweed (Amaranthus retroflexus), common blackjack (Bidens pilosa), kediock (Sinapis arvensis), common chickweed (Stellaria media), sicklepod (Cassia obtusifolia), black nightshade (Solanum nigrum), velvetleaf (Abutilon theophrasti), field bindweed (Convolvulus arvensis), wild chamomile (Matricaria chamomilla), cleavers (Galium aparine) and […] (Veronica hederaefolia), were uniformly sowed over a horticultural granular soil (produced by KUREHA CHEMICAL INDUSTRY, CO., LTD.; the same soil was used hereinafter) filled in a planter. The planter was placed in a greenhouse (maintained at 19 to 25° C.) to sprout these plants. Two seedlings of each sprouted plant were transplanted to a 10 cm-diameter pot filled with the horticultural granular soil and cultivated in the greenhouse (maintained at 19 to 25° C.) until reaching a cotyledonal to bifoliate period suited to the foliage and soil treatment. […] Next, additional amounts of Tween 20 and water were added to the obtained solution or suspension to produce a test solution. The plants prepared in the above (1) were placed within a frame having a predetermined inside area, and uniformly sprayed with the test solution using a sprayer such that the amount of each compound applied was controlled to a predetermined level. The plants sprayed with the test solution were placed again in the greenhouse (maintained at 19 to 25° C.) and cultivated therein. After 14 days, the degree of growth of each plant cultivated in the treated region was compared with that of plant cultivated in non-treated region, and evaluated according to the following ratings. The herbicidal activity of each test compound was represented by these ratings

[2] = test system: sicklepod (Cassia obtusifolia)
Excerpt: as §1

[3] = test system: cleavers (Galium aparine)
Excerpt: as §1

[4] = test system: common chickweed (Stellaria media)
Excerpt: as §1

[5] = test system: common blackjack (Bidens pilosa)
Excerpt: as §1

[6] = test system: field bindweed (Convolvulus arvensis)
Excerpt: as §1

[7] = test system: black nightshade (Solanum nigrum)
Excerpt: as §1

[8] = test system: velvetleaf (Abutilon theophrasti)
Excerpt: as §1

[9] = test system: kediock (Sinapis arvensis)
Excerpt: as §1

[10] = test system: redroot pigweed (Amaranthus retroflexus)
Excerpt: as §1

[11] = test system: wild chamomile (Matricaria chamomilla)
Excerpt: as §1

Structure (SMILES)	herbicidal activity rating, VH (Veronica hederaefolia) [1]	herbicidal activity rating, CO (Cassia obtusifolia) [2]	herbicidal activity rating, GA (Galium aparine) [3]	herbicidal activity rating, SM (Stellaria media) [4]	herbicidal activity rating, BP (Bidens pilosa) [5]	herbicidal activity rating, CA (Convolvulus arvensis) [6]	herbicidal activity rating, SN (Solanum nigrum) [7]	herbicidal activity rating, AT (Abutilon theophrasti) [8]	herbicidal activity rating, SA (Sinapis arvensis) [9]	herbicidal activity rating, AR (Amaranthus retroflexus) [10]	herbicidal activity rating, MC (Matricaria chamomilla) [11]
COc1cc(Oc2cccc(C(F)(F)F)c2)nc(C(=O)NO)c1 [Compound I-96, N-hydroxy-4-methoxy-6-{3-(trifluoromethyl)phenoxy}-2-pyridine carboxamide]	5 (percentage of weeds killed was not less than 80%)	5 (percentage of weeds killed was not less than 80%)	5 (percentage of weeds killed was not less than 80%)	5 (percentage of weeds killed was not less than 80%)	4 (percentage of weeds killed was not less than 60% and less than 80%)	3 (percentage of weeds killed was not less than 40% and less than 60%)	5 (percentage of weeds killed was not less than 80%)	3 (percentage of weeds killed was not less than 40% and less than 60%)	5 (percentage of weeds killed was not less than 80%)	5 (percentage of weeds killed was not less than 80%)	1 (percentage of weeds killed was less than 20%)
CCOCONC(=O)c1cc(OC)cc(Oc2cccc(C(F)(F)F)c2)n1 [Compound I-105]	5 (percentage of weeds killed was not less than 80%)	5 (percentage of weeds killed was not less than 80%)	5 (percentage of weeds killed was not less than 80%)	4 (percentage of weeds killed was not less than 60% and less than 80%)	4 (percentage of weeds killed was not less than 60% and less than 80%)	4 (percentage of weeds killed was not less than 60% and less than 80%)	5 (percentage of weeds killed was not less than 80%)	4 (percentage of weeds killed was not less than 60% and less than 80%)	5 (percentage of weeds killed was not less than 80%)	5 (percentage of weeds killed was not less than 80%)	3 (percentage of weeds killed was not less than 40% and less than 60%)
CCC(=O)CNC(=O)c1cc(OC)cc(Oc2cccc(C(F)(F)F)c2)n1 [Compound I-86, N-(2-oxobutyl)-4-methoxy-6-{3-(trifluoromethyl)phenoxy}-2-pyridine carboxamide]	5 (percentage of weeds killed was not less than 80%)	4 (percentage of weeds killed was not less than 60% and less than 80%)	5 (percentage of weeds killed was not less than 80%)	5 (percentage of weeds killed was not less than 80%)	4 (percentage of weeds killed was not less than 60% and less than 80%)	3 (percentage of weeds killed was not less than 40% and less than 60%)	5 (percentage of weeds killed was not less than 80%)	5 (percentage of weeds killed was not less than 80%)	5 (percentage of weeds killed was not less than 80%)	5 (percentage of weeds killed was not less than 80%)	4 (percentage of weeds killed was not less than 60% and less than 80%)
CSc1cc(Oc2cccc(C(F)(F)F)c2)nc(C(=O)NC(C)C)c1 [Compound I-55, N-(i-propyl)-4-methylmercapto-6-{3-(trifluoromethyl)phenoxy}-2-pyridine carboxamide]	5 (percentage of weeds killed was not less than 80%)	5 (percentage of weeds killed was not less than 80%)	5 (percentage of weeds killed was not less than 80%)	4 (percentage of weeds killed was not less than 60% and less than 80%)	4 (percentage of weeds killed was not less than 60% and less than 80%)	4 (percentage of weeds killed was not less than 60% and less than 80%)	5 (percentage of weeds killed was not less than 80%)	4 (percentage of weeds killed was not less than 60% and less than 80%)	4 (percentage of weeds killed was not less than 60% and less than 80%)	5 (percentage of weeds killed was not less than 80%)	3 (percentage of weeds killed was not less than 40% and less than 60%)
C=CCONC(=O)c1cc(OC)cc(Oc2cccc(C(F)(F)F)c2)n1 [Compound I-100]	5 (percentage of weeds killed was not less than 80%)	5 (percentage of weeds killed was not less than 80%)	5 (percentage of weeds killed was not less than 80%)	4 (percentage of weeds killed was not less than 60% and less than 80%)	4 (percentage of weeds killed was not less than 60% and less than 80%)	4 (percentage of weeds killed was not less than 60% and less than 80%)	5 (percentage of weeds killed was not less than 80%)	5 (percentage of weeds killed was not less than 80%)	5 (percentage of weeds killed was not less than 80%)	5 (percentage of weeds killed was not less than 80%)	4 (percentage of weeds killed was not less than 60% and less than 80%)
COc1cc(Oc2cccc(C(F)(F)F)c2)nc(C(=O)NCCSCCF)c1 [Compound I-92, N-{2-(2-fluoroethylmercapto)ethyl}-4-methoxy-6-{3-(trifluoromethyl)phenoxy}-2-pyridine carboxamide]	5 (percentage of weeds killed was not less than 80%)	5 (percentage of weeds killed was not less than 80%)	5 (percentage of weeds killed was not less than 80%)	4 (percentage of weeds killed was not less than 60% and less than 80%)	4 (percentage of weeds killed was not less than 60% and less than 80%)	4 (percentage of weeds killed was not less than 60% and less than 80%)	5 (percentage of weeds killed was not less than 80%)	3 (percentage of weeds killed was not less than 40% and less than 60%)	5 (percentage of weeds killed was not less than 80%)	5 (percentage of weeds killed was not less than 80%)	3 (percentage of weeds killed was not less than 40% and less than 60%)
COc1cc(Oc2cccc(C(F)(F)F)c2)nc(C(=O)NCCOCCF)c1 [Compound I-90]	5 (percentage of weeds killed was not less than 80%)	5 (percentage of weeds killed was not less than 80%)	5 (percentage of weeds killed was not less than 80%)	5 (percentage of weeds killed was not less than 80%)	5 (percentage of weeds killed was not less than 80%)	4 (percentage of weeds killed was not less than 60% and less than 80%)	5 (percentage of weeds killed was not less than 80%)	3 (percentage of weeds killed was not less than 40% and less than 60%)	5 (percentage of weeds killed was not less than 80%)	5 (percentage of weeds killed was not less than 80%)	2 (percentage of weeds killed was not less than 20% and less than 40%)

Reference: patent publication US6339045B1, “N-(unsubstituted or substituted)-4-substituted-6-(unsubstituted or substituted)phenoxy-2-pyridinecarboxamides or thiocarboxamides, processes for producing the same, and herbicides” (Kureha Kagaku Kogyo Kabushiki Kaisha, priority 1995, dated 2002)
